These results are taken from ChEMBL document CHEMBL5143623, “Discovery of novel spiro compound as RAF kinase inhibitor with in vitro potency against KRAS mutant cancer” (Bioorg Med Chem Lett, 2022).

The test system of series [1] is NCI-H358. As to the kind of experiment: Growth inhibition of human H358 cells expressing KRAS […] mutant measured after 3 days by Cell-titer Glo assay. It is filed as functional. Particulars: NCI-H358, 72 h, time 3 day.
Series [2] has as its target RAF proto-oncogene serine/threonine-protein kinase (Homo sapiens, UniProt P04049). The experiment in a line: Inhibition of human recombinant cRAF measured after 1 hr by TR-FRET assay. On the technique in general: TR-FRET usually uses a lanthanide donor and a delayed reading to cut background.
Series [3] addresses T1, Cytochrome P450 3A4 (Homo sapiens, UniProt P08684). As to the kind of experiment: Inhibition of CYP3A4 in human liver microsomes using midazolam as substrate. Also noted: species or system Microsome. In general terms: Liver microsomes are a subcellular fraction often used to study metabolism.
Series [4] is described as follows: Stability of compound in rat liver microsomes assessed as half life. It is filed as ADME, Microsome.
Series [5] is described as follows: Stability of compound in human liver microsomes assessed as half life. It is filed as ADME, Microsome.
For series [6], the system named is NCI-H358. The experiment in a line: Effect on Erk signalling pathway in human H358 cells assessed as increase in Erk phosphorylation by HTRF assay. It is filed as functional, cell-based.
Series [7] in a line: Hepatic clearance in human liver microsomes. It is filed as ADME, Microsome.
The nature of series [8]: Hepatic clearance in dog liver microsomes. It is filed as ADME, Canis lupus familiaris, Microsome.
The target in another series is Cytochrome P450 2C9 (Homo sapiens, UniProt P11712). The experiment in a line: Inhibition of CYP2C9 in human liver microsomes. It is filed as ADME, Microsome.
Series [9] is described as follows: Solubility of compound in PBS at pH 7.4. It is filed as physicochemical.
A further series deals with Cytochrome P450 2D6 (Homo sapiens, UniProt P10635). The experiment in a line: Inhibition of CYP2D6 in human liver microsomes. Further details: species or system Microsome.
In another series the target is Cytochrome P450 2C19 (Homo sapiens, UniProt P33261). As to the kind of experiment: Inhibition of CYP2C19 in human liver microsomes. It is filed as ADME, Microsome.
Series [10] in a line: Stability of compound in Dog liver microsomes assessed as half life. It is filed as ADME, Canis lupus familiaris, Microsome.
For another series, the target named is T2, Cytochrome P450 1A2 (Homo sapiens, UniProt P05177).
T2 sequence (P05177 whole entry): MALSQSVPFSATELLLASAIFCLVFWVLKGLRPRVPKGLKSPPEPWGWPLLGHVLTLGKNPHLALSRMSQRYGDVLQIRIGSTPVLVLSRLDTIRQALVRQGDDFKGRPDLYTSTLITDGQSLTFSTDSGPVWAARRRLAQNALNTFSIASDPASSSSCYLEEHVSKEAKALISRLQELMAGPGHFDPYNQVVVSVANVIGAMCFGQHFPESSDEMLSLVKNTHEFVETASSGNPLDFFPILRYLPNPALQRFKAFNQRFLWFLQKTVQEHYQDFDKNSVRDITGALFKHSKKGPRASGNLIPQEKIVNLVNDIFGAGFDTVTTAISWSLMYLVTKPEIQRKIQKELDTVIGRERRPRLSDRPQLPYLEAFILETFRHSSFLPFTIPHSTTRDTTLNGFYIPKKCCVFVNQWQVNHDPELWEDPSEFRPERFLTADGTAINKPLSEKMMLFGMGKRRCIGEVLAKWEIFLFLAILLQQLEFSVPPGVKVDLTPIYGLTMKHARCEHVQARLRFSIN
The experiment in a line: Inhibition of CYP1A2 in human liver microsomes. It is filed as ADME, Microsome.

In series [11] the target is Voltage-gated inwardly rectifying potassium channel KCNH2 (Homo sapiens, UniProt Q12809). As to the kind of experiment: Inhibition of hERG. It is filed as toxicity. (The hERG channel carries a current that helps repolarise heart muscle cells.)
A short description of series [12]: Hepatic clearance in mouse liver microsomes. It is filed as ADME, Microsome.
Series [13] can be described thus: Hepatic clearance in rat liver microsomes. It is filed as ADME, Microsome.
Series [14] in a line: Stability of compound in mouse liver microsomes assessed as half life. It is filed as ADME, Microsome.
For series [15], the target named is T1, Cytochrome P450 3A4. As to the kind of experiment: Inhibition of CYP3A4 in human liver microsomes using testosterone as substrate. Further details: species or system Microsome.

Values after ≈ are worked out from the molar mass of the structure shown. Active and inactive are the calls of the source. Bounds are passed on as bounds.

Sequence of RAF proto-oncogene serine/threonine-protein kinase (P04049 whole entry): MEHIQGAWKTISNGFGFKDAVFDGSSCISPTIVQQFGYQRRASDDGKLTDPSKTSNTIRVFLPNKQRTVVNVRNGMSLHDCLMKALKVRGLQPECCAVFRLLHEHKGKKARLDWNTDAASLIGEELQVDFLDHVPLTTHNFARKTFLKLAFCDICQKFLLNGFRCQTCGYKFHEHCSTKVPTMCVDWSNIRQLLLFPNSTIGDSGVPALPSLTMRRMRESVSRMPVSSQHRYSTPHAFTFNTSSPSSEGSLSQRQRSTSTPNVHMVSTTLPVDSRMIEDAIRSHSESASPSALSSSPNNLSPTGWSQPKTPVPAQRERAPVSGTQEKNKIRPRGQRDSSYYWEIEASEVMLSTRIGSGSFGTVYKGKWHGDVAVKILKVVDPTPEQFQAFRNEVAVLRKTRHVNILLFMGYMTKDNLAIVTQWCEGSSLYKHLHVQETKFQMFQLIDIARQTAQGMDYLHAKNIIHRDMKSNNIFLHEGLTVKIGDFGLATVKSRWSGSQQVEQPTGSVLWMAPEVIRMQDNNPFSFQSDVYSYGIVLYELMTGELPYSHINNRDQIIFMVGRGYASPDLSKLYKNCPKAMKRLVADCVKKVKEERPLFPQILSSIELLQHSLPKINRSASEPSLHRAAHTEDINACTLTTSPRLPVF
T1 sequence (P08684 whole entry): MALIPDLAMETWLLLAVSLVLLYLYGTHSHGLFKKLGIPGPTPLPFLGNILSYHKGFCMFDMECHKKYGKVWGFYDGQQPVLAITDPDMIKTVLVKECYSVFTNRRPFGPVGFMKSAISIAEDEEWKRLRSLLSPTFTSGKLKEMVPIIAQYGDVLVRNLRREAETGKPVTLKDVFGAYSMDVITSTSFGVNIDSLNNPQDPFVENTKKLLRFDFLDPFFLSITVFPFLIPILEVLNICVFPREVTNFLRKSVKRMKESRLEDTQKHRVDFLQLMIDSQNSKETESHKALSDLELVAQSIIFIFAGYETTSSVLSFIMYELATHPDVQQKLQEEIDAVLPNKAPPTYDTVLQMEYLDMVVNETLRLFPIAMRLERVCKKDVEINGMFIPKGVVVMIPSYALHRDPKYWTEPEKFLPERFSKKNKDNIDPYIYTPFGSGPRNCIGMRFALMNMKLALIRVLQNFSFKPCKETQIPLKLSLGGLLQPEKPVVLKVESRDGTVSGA
Sequence of Cytochrome P450 2C19 (P33261 whole entry): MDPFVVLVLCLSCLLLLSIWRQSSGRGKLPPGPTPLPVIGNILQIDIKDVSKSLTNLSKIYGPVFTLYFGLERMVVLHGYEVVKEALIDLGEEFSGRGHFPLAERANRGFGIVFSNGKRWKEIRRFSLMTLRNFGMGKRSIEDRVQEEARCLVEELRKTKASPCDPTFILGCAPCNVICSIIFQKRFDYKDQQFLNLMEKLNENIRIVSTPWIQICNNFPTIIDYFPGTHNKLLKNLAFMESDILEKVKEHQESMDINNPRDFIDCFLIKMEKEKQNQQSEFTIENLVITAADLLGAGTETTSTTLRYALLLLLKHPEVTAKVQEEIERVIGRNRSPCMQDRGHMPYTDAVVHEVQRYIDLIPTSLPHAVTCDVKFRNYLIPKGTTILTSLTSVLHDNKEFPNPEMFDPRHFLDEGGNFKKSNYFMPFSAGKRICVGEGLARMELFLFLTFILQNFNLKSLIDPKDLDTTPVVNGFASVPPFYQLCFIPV
Sequence of Cytochrome P450 2C9 (P11712 whole entry): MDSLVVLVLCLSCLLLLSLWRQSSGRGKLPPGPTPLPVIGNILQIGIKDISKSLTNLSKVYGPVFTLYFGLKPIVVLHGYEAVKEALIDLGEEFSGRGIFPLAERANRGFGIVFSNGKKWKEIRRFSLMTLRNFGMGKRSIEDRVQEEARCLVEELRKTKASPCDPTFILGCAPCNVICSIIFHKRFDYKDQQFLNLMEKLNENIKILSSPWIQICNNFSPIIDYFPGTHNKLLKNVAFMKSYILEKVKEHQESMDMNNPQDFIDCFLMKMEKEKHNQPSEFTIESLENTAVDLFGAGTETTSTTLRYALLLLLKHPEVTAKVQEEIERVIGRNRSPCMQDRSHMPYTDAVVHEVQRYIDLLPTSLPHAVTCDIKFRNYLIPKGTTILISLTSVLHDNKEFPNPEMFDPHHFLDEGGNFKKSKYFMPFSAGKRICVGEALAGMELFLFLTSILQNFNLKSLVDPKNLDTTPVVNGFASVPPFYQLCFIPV
Sequence of Cytochrome P450 2D6 (P10635 whole entry): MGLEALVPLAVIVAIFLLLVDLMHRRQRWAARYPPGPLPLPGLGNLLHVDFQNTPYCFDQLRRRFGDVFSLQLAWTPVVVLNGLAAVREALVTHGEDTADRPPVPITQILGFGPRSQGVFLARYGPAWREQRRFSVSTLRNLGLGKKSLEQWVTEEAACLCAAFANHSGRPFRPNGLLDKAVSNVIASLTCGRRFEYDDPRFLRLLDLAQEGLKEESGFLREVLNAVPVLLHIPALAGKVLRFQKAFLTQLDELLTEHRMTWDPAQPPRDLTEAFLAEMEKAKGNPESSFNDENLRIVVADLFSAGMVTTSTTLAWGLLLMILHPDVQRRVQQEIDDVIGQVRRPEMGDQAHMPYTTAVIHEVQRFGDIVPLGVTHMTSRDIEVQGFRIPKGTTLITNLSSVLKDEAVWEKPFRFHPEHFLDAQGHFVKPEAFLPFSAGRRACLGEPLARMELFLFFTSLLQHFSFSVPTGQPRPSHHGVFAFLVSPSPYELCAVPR
Sequence of Voltage-gated inwardly rectifying potassium channel KCNH2 (Q12809 whole entry): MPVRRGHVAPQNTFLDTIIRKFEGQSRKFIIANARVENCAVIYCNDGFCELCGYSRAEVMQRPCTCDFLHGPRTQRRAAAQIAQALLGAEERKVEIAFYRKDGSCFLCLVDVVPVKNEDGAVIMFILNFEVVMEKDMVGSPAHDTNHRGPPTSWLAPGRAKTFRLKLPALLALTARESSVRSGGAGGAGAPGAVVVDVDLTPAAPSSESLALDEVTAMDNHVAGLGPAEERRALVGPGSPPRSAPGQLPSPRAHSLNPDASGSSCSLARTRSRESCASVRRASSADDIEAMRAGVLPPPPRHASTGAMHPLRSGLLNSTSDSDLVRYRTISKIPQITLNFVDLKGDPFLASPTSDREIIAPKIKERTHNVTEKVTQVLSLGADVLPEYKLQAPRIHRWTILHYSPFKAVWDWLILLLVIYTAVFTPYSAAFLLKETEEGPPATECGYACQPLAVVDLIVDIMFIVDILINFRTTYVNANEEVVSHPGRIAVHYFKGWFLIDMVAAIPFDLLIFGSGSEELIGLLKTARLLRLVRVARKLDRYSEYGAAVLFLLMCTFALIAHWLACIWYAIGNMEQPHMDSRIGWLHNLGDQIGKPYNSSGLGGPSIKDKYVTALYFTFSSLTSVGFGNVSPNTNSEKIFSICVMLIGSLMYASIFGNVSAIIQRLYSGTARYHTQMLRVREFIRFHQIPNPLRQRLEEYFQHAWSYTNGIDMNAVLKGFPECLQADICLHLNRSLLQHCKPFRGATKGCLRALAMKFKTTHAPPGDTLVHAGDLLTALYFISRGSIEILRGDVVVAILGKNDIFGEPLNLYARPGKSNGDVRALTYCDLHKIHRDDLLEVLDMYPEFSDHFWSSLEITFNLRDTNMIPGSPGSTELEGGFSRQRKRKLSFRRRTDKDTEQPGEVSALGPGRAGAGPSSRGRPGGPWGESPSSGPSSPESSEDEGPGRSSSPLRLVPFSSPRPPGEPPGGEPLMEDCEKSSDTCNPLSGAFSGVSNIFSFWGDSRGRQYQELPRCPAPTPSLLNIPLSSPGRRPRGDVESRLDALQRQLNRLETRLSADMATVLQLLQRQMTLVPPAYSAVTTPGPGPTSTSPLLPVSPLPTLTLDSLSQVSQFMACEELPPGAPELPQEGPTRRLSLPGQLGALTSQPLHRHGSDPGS

In the series on NCI-H358 [1], `Cc1ccc(NC(=O)c2ccnc(C(F)(F)F)c2)cc1-c1ccc2c(c1)NC1(CCOCC1)NC2=O` had a GI50 of 15 µM. Further, the IC50 in series [2] came to 4.8 nM.
The compound `Cc1ccc(NC(=O)c2ccnc(C(F)(F)F)c2)cc1-c1ccc2c(c1)OC1(CCOCC1)CC2=O` registered a GI50 in the series on NCI-H358 [1] of 4.2 µM. Besides, the half-inhibitory concentration (IC50) against Cytochrome P450 3A4 [3] was greater than 30 µM; in series [2], 15 nM; on Cytochrome P450 2C9 it was greater than 30 µM; at Cytochrome P450 2D6, greater than 30 µM; on Cytochrome P450 2C19, greater than 30 µM; at Cytochrome P450 1A2, greater than 30 µM. The IC50 in [11] is 3.4 µM; against Cytochrome P450 3A4 [15], greater than 30 µM. Moreover, the half-life amounted to 18.5 min in series [4], 8.1 min in [5], 32.4 min in [10] and 28.1 min in [14]. Also, the outcome in the series with NCI-H358 [6] was Active. In addition, the CLH in series [7] was found to be 18.3 µL/min/g; in series [8], 20.6 µL/min/g; in [12] it was 61.6 µL/min/g; in series [13], 52.2 µL/min/g. The compound also gave a solubility in series [9] of 0.46 µM (≈ 0.228 µg/mL).
As to `Cc1ccc(NC(=O)c2ccnc(C(F)(F)F)c2)cc1-c1ccc2c(c1)OC1(CCOCC1)C(=O)N2`, the GI50 in the series on NCI-H358 [1] turned out to be 10 µM. Moreover, in series [2], the IC50 was 14 nM.
The like results for `Cc1ccc(NC(=O)c2ccnc(C(F)(F)F)c2)cc1-c1ccc2c(c1)OC1(CCOCC1)CC2N` (configuration not stated) were, in that order, 6.6 µM and 21 nM.
The like results for `Cc1ccc(NC(=O)c2ccnc(C(F)(F)F)c2)cc1-c1ccc2c(c1)NC1(CCOCC1)NS2(=O)=O` were, in that order, 19 µM and 60 nM.
The like results for `Cc1ccc(NC(=O)c2ccnc(C(F)(F)F)c2)cc1-c1ccc2c(c1)OC1(CCNCC1)NC2=O` were, in that order, 15 µM and 19 nM.
For the compound `Cc1ccc(NC(=O)c2ccnc(C(F)(F)F)c2)cc1-c1cnc2c(c1)OC1(CCOCC1)NC2=O`, the GI50 with NCI-H358 [1] worked out at 8.7 µM. Further, the IC50 in series [2] is 28 nM.
The matching figures for `Cc1ccc(NC(=O)c2ccnc(C(F)(F)F)c2)cc1-c1ccc2c(c1)OC1(CCSCC1)NC2=O`: 5.6 µM and 7 nM.
The matching figures for `Cc1ccc(NC(=O)c2ccnc(C(F)(F)F)c2)cc1-c1ccc2c(c1)C(=O)CC1(CCOCC1)O2`: 9.7 µM and 37 nM.
The matching figures for `Cc1ccc(NC(=O)c2ccnc(C(F)(F)F)c2)cc1-c1ccc2c(c1)SC1(CCOCC1)CC2=O`: 7.9 µM and 29 nM.

What is called GI50 is the concentration at which growth is held to half of that of the control. Low values mean more potent growth inhibition, high ones less potent growth inhibition. As usually defined, the IC50 is the concentration that inhibits the measured activity by half. As usually defined, the half-life is the time needed for the level to fall by half in the phase considered. The term solubility denotes the dissolved amount per volume that the medium holds. The low end stands for a poorly soluble substance, the high end for a readily soluble substance.
